From paper PMC10809383, “Synthesis and migrastatic activity of cytochalasin analogues lacking a macrocyclic moiety” (RSC Medicinal Chemistry, 2023)
“Also recorded” adds a separate entry of the source.

Columns and labels:
actin = target: T1, actin (Oryctolagus cuniculus, UniProt P68135); test: Actin polymerization assay (pyrene-actin, Actin Polymerization Biochem Kit); type: biochemical; conditions: 10 μM, in vitro
T1 construct: purchased Cytoskeleton, Inc, Denver, CO
Description: To further ascertain the compounds' interference with actin polymerization, the active compounds, along with CytB (1) as a positive control and compound 26 as a negative control, were subjected to an in vitro actin polymerization assay (Fig. 2B). […] This correlation between actin inhibitory activity and migrastatic effect underscores the pivotal role of actin polymerization inhibition in mediating the observed migrastatic activity.
Actin polymerization assay was performed using Actin Polymerization Biochem Kit™ (Cytoskeleton, Inc, Denver, CO) according to the manufacturer protocol. Briefly, 25 μL of G-buffer containing labelled pyrene-actin (0.4 mg mL^−1) and 2.48 μL of either DMSO (10 μM, control) or inhibitor (10 μM) was added in […] well plate. Actin polymerization was initiated by the addition of 2.48 μL of 10× actin polymerization buffer and analysed in time until fluorescent signal plateau was reached using a spectrophotometer (Infinite 200 PRO, Tecan Life Sciences, Tecan Group Ltd., Zürich, CHE). The fluorescence emission intensity of actin polymerization was measured at 420 nm and 360 nm was used as excitation wavelength. Statistical analysis was performed in GraphPad using one-way ANOVA. Measurements were performed in three independent repetitions each consisting of at least three technical replicates. For a representative graph from this assay, see ESI, ^† Fig. S2.

[1] = tested on: human melanoma cell line BLM; test: Spheroid invasion assay (migrastatic activity); type: cell-based; conditions: 24 h
Description: Compounds 17, 20, and 22–30 were screened for their migrastatic activity using a spheroid invasion assay with the human melanoma cell line BLM.[46] Spheroids were formed and subsequently treated with cytochalasin analogues at a concentration of 10 μM for 24 h. CytB (1) and CytD (2) served as reference compounds for comparison. There was no significant increase in cell migration observed for any of the compounds tested. […] However, the effect was less profound than that of the reference compounds 1 and 2.
The spheroid invasion assay was performed following a previously published protocol.[63] Briefly, BLM cells were grown as spheroids using 3D Petri Dish (Microtissues). After 2 days of spheroid formation, 1.5 mg mL^−1 collagen solution (rat tail, collagen type I) was prepared (1.5 mg mL^−1 rat-tail collagen, 1× DMEM, 1% (v/v) FBS) and added at the bottom of a 96-well plate. Spheroids were embedded into the collagen (one spheroid per well) and covered with another layer of the gel. Collagen was polymerized at 37 °C and subsequently overlaid with a cultivation medium. Images of spheroids were taken with Leica TCS SP2 microscope (5×/0.15 dry objective; LAS X Life Science Microscope software) immediately after their seeding into collagen and again after 24 h. The area of the spheroids at 0 and 24 h was measured using FiJi (Rasband, W.S., ImageJ, NIH, Bethesda, MD, USA). Cellular invasiveness was determined as an increase in spheroid area within 24 h. Three independent experiments were conducted with at least 8 spheroids analysed in each experiment. Statistical analysis was performed in GraphPad using one-way ANOVA. For numeric data and representative images from this assay, see ESI, ^† Table S1 and Fig. S1.
Table S1: Spheroid invasion assay with BLM cell line at 10 µM concentration, 24 h.
Figure S1: Representative images of BLM cell spheroid invasion assay with or without
inhibitor. Images were taken at 0 h and 24 h. using a Leica TCS SP2 microscope (5x/0.15
dry objective). DMSO (first column) was used as a control. Scale bar 500 µm.

[2] = tested on: human fibroblasts (MRC-5); test: WST-1 viability assay, MRC-5 cells; type: cell-based; conditions: MRC5, 72 h treatment, WST-1 assay, 2D culture, 0–50 μM
Description: (§1) In addition, the cytotoxic activity of compounds 17, 20, and 22–30 was assessed by the WST-1 viability assay using BLM (human melanoma) and MRC-5 (noncancerous human fibroblasts) cells growing in a monolayer (2D cultures, Table 2) after 72 h of treatment.
(§2) Human cells from melanoma (BLM) and human lung fibroblasts (MRC-5, Merck, USA) were used to evaluate in vitro cytotoxicity of the prepared compounds. The cells were maintained at the exponential phase of growth (passaging done by trypsin–EDTA solution) in DMEM and MEM, for BLM and MRC-5, respectively, with stable L-glutamine and supplemented with 10% fetal bovine serum (Thermo Fisher Scientific, USA). The cells were kept in an incubator at 37 °C, 5% CO2 in the atmosphere, and 95% humidity.
(§3) The compound cytotoxicity was determined by a WST-1 viability assay (Merck, USA). The amount of 5000 BLM and MRC-5 cells were seeded into individual wells of 96-well plates in 100 μL of cell cultivation media and maintained in an incubator for 16 h. After this period, the cells were treated with a concentration series (0–50 μM) of the tested compounds diluted in another 100 μL of cultivation media, which was added to the wells containing cells and incubated for 72 h. Then, BLM and MRC-5 cell viability was evaluated by WST-1 agent (5% v/v solution in phenol red-free DMEM media), i.e., the cell media was discarded and 100 μL of WST-1 solution was added. After 2 h incubation, the absorbance of formazan, derived from the WST-1 tetrazolium salt was determined spectrophotometrically at 450 nm (reference at 650 nm) by a UV-vis spectrophotometer (Bio-Rad, USA). Untreated cells, cells treated only with a vehicle, and cells treated with cytochalasin B (1) and D (2) served as controls. The measurement occurred in three independent repetitions each of which consisted of three technical replicates. The data were plotted as dose–response curves from which the half-maximal inhibitory concentrations (IC50) were calculated using AAT Bioquest.

[3] = tested on: human melanoma cells (BLM); test: WST-1 viability assay, BLM cells; type: cell-based
Description: as §1, §2, §3

[4] = tested on: HT1080 fibrosarcoma cells; test: Fluorescence microscopy of actin cytoskeleton (SPY650-FastAct time-lapse); type: cell-based; conditions: for effect on the actin cytoskeleton: 10 μM
Description: Next, we conducted experiments to assess the impact of compound 24, CytB (1) and CytD (2) on the actin cytoskeleton using fluorescence microscopy in HT1080 fibrosarcoma cells (Fig. 3). […] Therefore, we increased the concentration up to 50 μM.
HT1080 cells were seeded into 12-well glass bottom plate and stained with SPY650-FastAct™ following manufacturer's protocol. Untreated cells (control) were imaged every 20 s for 15 min using Leica TCS SP2 microscope (40×/0.6 dry objective). Afterwards, an inhibitor (compound 24 at 10 μM; 50 μM or compound 1 and 2 at 10 μM) was added into the same well and its effect was recorded for 15 min (20 s/image). All video recordings were analyzed using FiJi (Rasband, W.S., ImageJ, NIH, Bethesda, MD, USA).

## C=C1[C@@H](C)[C@H]2[C@H](Cc3ccccc3)NC(=O)[C@@]2(C(=O)OC)[C@@H](CCOCCc2ccccc2)[C@@H]1O [Compound 24, Methyl (1S,3aS,4R,5S,7S,7aR)-1-benzyl-5-hydroxy-7-methyl-6-methylene-3-oxo-4-(2-phenethoxyethyl)octahydro-3aH-isoindole-3a-carboxylate]
actin
  inhibition of actin polymerization (in words): inhibit actin polymerization; also recorded: inhibition of actin polymerization
[1]; 10 μM, BLM spheroid invasion
  migrastatic activity (cell migration, in words): significant in vitro migrastatic activity; also recorded: significant decrease in cell migration; also recorded: most potent migrastatic activity
[1]; 10 µM, BLM spheroids in collagen, DMSO control 1.02
  rel. spheroid area: 0.46
[2]
  IC50: > 50 µM
[3]; Homo sapiens, 72 h treatment, WST-1 assay, 2D culture, 0–50 μM
  IC50: > 50 µM
[3]; WST-1, up to 50 μM, cell line not given
  cytotoxicity (in words): non-cytotoxic
[4]; after 5 min
  effect on the actin cytoskeleton: observable alterations became apparent
[4]; within 2 min of addition
  effect on the actin cytoskeleton: no effect was observed
[4]; 50 μM, after 2 min
  change in cell morphology: visible change in cell morphology was observed
